Like-named read-outs stand apart in the source and are kept apart here.

These results are taken from patent publication US20120289541A1 (NOVARTIS AG, priority 2010, published 2012).

A short description of data set [1]: in vitro. The format is in vitro ADME. Particulars: bovine, pH 7.4. An excerpt:
The volume of serous middle ear fluid (MEF) that accumulates in non-infected chinchillas with Eustachian tube obstruction varies greatly. […] It became necessary to formulate an artificial middle ear fluid (AMEF) that mimics the MEF.

A short description of data set [2]: Non-specific binding to ultrafiltration device in PBS.
Data set [3] can be described thus: in vitro.
A short description of data set [4]: External ear dosing of 3% moxigel after 10% or 50% IPM pretreatment, MEF microdialysis. Particulars: 3% moxigel 9 mg external ear, mean.
For data set [5] the following is noted: cited from earlier work.

The fraction unbound is free concentration divided by total concentration. For `COc1c(N2C[C@@H]3CCCN[C@@H]3C2)c(F)cc2c(=O)c(C(=O)O)cn(C3CC3)c12` [moxifloxacin], the fraction unbound at 220 μg/ml in the data set “in vitro [1]” (isolated protein) turned out to be 0.84 ± 0.063; in data set [2], 0.97 ± 0.026. The fraction unbound at 492 μg/ml came out at 0.92 ± 0.013 in “in vitro [1]” (isolated protein) and 0.75 ± 0.02 in “in vitro [3]”. For the same compound, the unbound share (fraction unbound) was 0.84 to 0.92 in “in vitro [1]” and approximately 1 in data set [2]. In addition, the “Time to reach 10 μg/mL” value in data set [4] is reported as 618 min. For the same compound, the “mean AUC” value in data set [5] (human, in vivo, po, 400 mg) is 2170 µg·min/mL. Further, the “concentration observed in plasma” value in data set [5] (humans, oral dose of 400 mg, Owens & Ambrose 2002) is 2000 ng/mL. In addition, the “total (bound plus free) maximum concentration in plasma” value in data set [5] (humans, oral dose of 400 mg) is 3.1 µg/mL. The elimination rate constant is, setting by setting: (high intrabulla dose (150 μg)) 0.0075 ± 0.0010 min⁻¹; (intrabulla dosing, mean of both doses) 0.0093 min⁻¹; (low intrabulla dose (50 μg)) 0.0102 ± 0.0040 min⁻¹.
